Results published in patent publication US8212036B2, “Maleate salts of 6-(5-chloro-2-pyridyl)-5-[(4-methyl-1-piperazinyl)carbonyloxy]-7-oxo-6,7-dihydro-5H-pyrrolo[3,4-b]pyrazine” (Sunovion Pharmaceuticals Inc., priority 2007, dated 2012).

How the values were obtained:
Format in all cases: physicochemical
[1] = Intrinsic dissolution, USP 28 method <1087>; settings: isotonic 50 mM acetate (pH 4.5) buffer at 37° C., 50 rpm
Procedure: The intrinsic dissolution (Table 3) was determined using USP 28 method <1087> (United States Pharmacopeia, The National Formulary, USP 28, 28th edition, Rockville, […]., 2005). Preparation of each test sample was performed as per USP 28 method <1087> by weighing and transferring the material to the die cavity and compressing for 1 minute at the minimum compression pressure necessary to form a nondisintegrating compacted pellet. The dissolution media used was isotonic 50 mM acetate buffer (pH 4.5) at 37° C. and speed was set at 50 rpm. Each run was halted at 5 min, irrespective of the percent dissolved. Each salt was run in duplicate.

[2] = Tablet dissolution over time at various pH; settings: for Dependence of dissolution on pH: oral dosage form, media pH 1 to 6.8 and deionized water
Procedure: Dissolution over time of eszopiclone free base at various pHs (FIG. 1) was compared to that of eszopiclone maleate salt (FIG. 2) in dissolution media at various pH values using Hanson Research SR8-Plus Dissolution Apparatus and C-Technologies Fiber Optic UV Probes at 305 nm (excipients subtracted at 410 nm). The dissolution media used were (a) pH 1 (0.1N HCl) 50 ml of conc HCl mixed in 6 L of water; (b) pH 4.5 acetate buffer (20 mM) 5.88 g of sodium acetate trihydrate dissolved in 6 L of water, pH adjusted to 4.5 with acetic acid; (c) pH 5.5 phosphate buffer (20 mM) 16.3 g of potassium dihydrogen phosphate in 6 L of water. pH adjusted to 5.5 with NaOH; (d) pH 6.8 phosphate buffer (20 mM) 16.3 g of potassium dihydrogen phosphate in 6 L of water. pH adjusted 6.8 with NaOH. A standard dissolution protocol was used. The standard solution (0.006 mg/mL of eszopiclone free base) was prepared by weighing a known amount (˜20 mg) of the free base into a 100 mL volumetric flask. 10 mL of acetonitrile was added into the flask and sonicated until the solids dissolved completely. The solution was cooled to room temperature and made up to the 100 mL mark using media and mixed well. Dilute 3 mL to 100 mL using media. The tables were prepared by transferring 500 mL dissolution media into the 6 vessels. Blank readings were taken for all the probes using media. Standards were read for individual vessels. Probes were washed with media and then inserted back into each vessel. One tablet was transferred into each vessel. The dissolution program was started immediately and readings were taken at 305 nm for 60 min (every 1 min for 20 min and then every 10 min).
FIG. 1 depicts dissolution profiles of the eszopiclone free base at pH 1 (0.1N HCl), pH 4.5 in buffer, pH 5.5 in buffer, pH 6.8 in buffer and in deionized water. […] FIG. 2 depicts dissolution profiles of the eszopiclone maleate salt at pH 1 (0.1N HCl), pH 4.5 in buffer, pH 5.5 in buffer, pH 6.8 in buffer and in deionized water. It can be seen that the dissolution is greater than 50% within five minutes and greater than 80% at one hour at all pH.

[3] = Aqueous solubility (24 hour equilibrated suspension in water, HPLC); settings: for pH measured at saturation: saturated suspension in water
Procedure: The aliquot was diluted and analyzed by HPLC (Waters). The data was compared to a standard curve generated from a set of solutions of known concentrations. The standard curve and the samples were analyzed using a HPLC using the following conditions: […]

[4] = all pH (pH 1, 4.5, 5.5, 6.8, deionized water)

| SMILES | Intrinsic dissolution Average [1] [mgA/cm^2/min] | Intrinsic dissolution Run 1 [1] [mgA/cm^2/min] | Intrinsic dissolution Run 2 [1] [mgA/cm^2/min] | Dissolution at one hour [2, 4] | Dissolution within five minutes [2, 4] | Dependence of dissolution on pH [2] | pH measured at saturation [3] | solubility thermodynamic at 24 h ([3]; water, 24 hour at ambient) [µg/mL] | Part of tablet dissolved at one hour ([2]; deionized water) | Dissolution of tablet ([2]; pH 1 (0.1N HCl)) | Part of tablet dissolved at one hour ([2]; pH 6.8 buffer) | Solubility ([3]; water, 24 hour at ambient) |
| --- | --- | --- | --- | --- | --- | --- | --- | --- | --- | --- | --- | --- |
| CN1CCN(C(=O)O[C@H]2c3nccnc3C(=O)N2c2ccc(Cl)cn2)CC1.O=C(O)/C=C\C(=O)O [Maleate, (S)-Zopiclone Maleate] | 1.3 | 1.4 | 1.2 | greater than 80% | greater than 50% | dissolve quickly and at substantially the same rate, regardless of the pH | 4.4 | 9000 | – | – | – | – |
| CN1CCN(C(=O)O[C@H]2c3nccnc3C(=O)N2c2ccc(Cl)cn2)CC1 [Free base, [(9S)-8-(5-chloropyridin-2-yl)-7-oxo-2,5,8-triazabicyclo[4.3.0]nona-1,3,5-trien-9-yl]4-methyl piperazine-1-carboxylate] | 0.5 | 0.6 | 0.5 | – | – | decreases markedly as the pH rises | 7.6 | – | less than one half | rapid and complete | less than one half | 0.2^1 mgA/mL |
